Measured values: US20020173515A1, “Antiproliferative substituted 5-thiapyrimidinone and 5-selenopyrimidinone compounds” (priority 1992, published 2002)

Key:
L1210 murine leukemia = experiment: Cellular growth inhibition, L1210 (MTT-tetrazolium reduction); format: cell-based; conditions: Mus musculus, L1210, 72 h; 3 days continuous exposure; read-out: Cell Line, IC50 L1210
Procedure: (§1) Cellular growth in the presence of the compounds according to the present invention was assessed using two cell lines: the L1210 murine leukemia (ATCC CCL 219) and CCRF-CEM, a human lymphoblastic leukemia line of T-cell origin (ATCC CCL 119). Both lines were maintained in RPMI 1640 medium containing 5% heat-inactivated fetal bovine serum without antibiotics.
(§2) Growth was measured over 3 days (L1210) or 5 days (CCRF-CEM) of continuous exposure to varying concentrations of each test compound added 4 hours after initial cell plating by the MITT-tetrazolium reduction assay of Mosmann T. J. (Immunol. meth. 65, 55-63 (1983)), modified according to Alley et al. (Cancer Res. 48, 589-601 (1988)). Water insoluble derivatives were dissolved in DMSO and diluted to a final concentration of 0.5% solvent in cell cultures.

L1210-C192 = experiment: Cellular growth inhibition, L1210-C192; format: cell-based; conditions: read-out: Cell Line, IC50 L1210-C192
[1] = system: CCRF-CEM, a human lymphoblastic leukemia line of T-cell origin; experiment: Cellular growth inhibition, CCRF-CEM (MTT-tetrazolium reduction); format: cell-based; conditions: 120 h, 5 days continuous exposure
Procedure: as §1, §2

[2] = target: T1, catalytic domain of the human GARFT (Homo sapiens, UniProt P22102); experiment: GARFT inhibition constants, Method II (modified Young et al. assay); format: biochemical; conditions: Method II (Examples 6, 7, 8 and 9); 20° C, 50 mM Tris-Cl pH 7.5, 20 μM GAR, 10 or 20 μM FDDF
T1 construct: Reaction mixtures contained the catalytic domain of the human GARFT
T1 sequence (P22102 810-1010 limits assumed): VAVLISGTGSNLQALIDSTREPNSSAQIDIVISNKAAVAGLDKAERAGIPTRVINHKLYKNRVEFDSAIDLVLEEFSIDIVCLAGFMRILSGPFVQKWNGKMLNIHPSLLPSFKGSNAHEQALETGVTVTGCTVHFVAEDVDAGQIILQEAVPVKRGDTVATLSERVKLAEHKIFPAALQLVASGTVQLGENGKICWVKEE
Procedure: Reaction mixtures contained the catalytic domain of the human GARFT, inhibitor, 20 μM glycinamide ribonucleotide (GAR), 10 or 20 μM N^10-formyl-5,8-dideazafolate (FDDF), and 50 mM Tris-Cl at pH 7.5.
GARFT constants (Ki) were determined from the dependence of the steady-state catalytic rate upon inhibitor and substrate concentration. […] The michaelis constant Km, was determined independently by the dependence of the catalytic rate upon FDDF concentration. Data for both the Km and Ki determinations were fitted by non-linear methods to the Michaelis equation or the Michaelis equation for competitive inhibition as appropriate.

[3] = target: T2, partially purified AICARFT from cultured CEM cells (Homo sapiens, UniProt P31939); experiment: AICARFT inhibition constants (modified Black et al. assay); format: biochemical; conditions: 37° C, 50 mM Tris-Cl pH 7.4, 50 μM racemic FTHF
T2 construct: partially purified AICARFT from cultured CEM cells; endogenous in cells; host or cells: CEM cells (partially purified enzyme preparation)
Procedure: Determination of Inhibition Constants for AICARFT
The assay method of Black et al. (Anal Biochem 90, 397-401 (1978)) was modified and used as described below. Buffers were degassed under vacuum prior to the preparation of substrate solutions and degassed buffer was used in the reaction mixtures. Reaction mixtures contained partially purified AICARFT from cultured CEM cells, inhibitor, 100 μM […] (5-aminoimidazole-4-carboxamide-ribonucleotide), 50 μM of a racemic mixture of N10-formyl-tetrahydrofolate (FTHF), 25 mM KCl, 50 mM 2-mercaptoethanol and 50 mM Tris-Cl pH 7.4. The reaction was initiated with the addition of the enzyme solution to a final concentration of 0.1 mg/mL and the reaction followed by monitoring the increase in absorbance at 298 nm at 37° C. (ε298=28 mM cm^−1).
AICARFT inhibition constants (Ki) were determined from the dependence of the steady-state catalytic rate upon inhibitor and substrate concentration. The type of inhibition observed and the determination of Ki was performed as described above for inhibitors of GARFT with the appropriate substrates and the AICARFT assay. Treatment of experimental data was essentially the same.

[4] = target: T3, GARFT domain of the human enzyme (Homo sapiens, UniProt P22102); experiment: GARFT inhibition constants, Method I (Cleland; spectrophotometric assay of Young et al.); format: biochemical; conditions: Method I (Examples 2-5 and 10); 22° C, 20 mM Hepes pH 7.5, 20 μM GAR, variable 10-formyl-5,8-dideazafolate
T3 construct: The GARFT domain of the human enzyme was used
T3 sequence (P22102 810-1010 limits assumed): T1 sequence (P22102 810-1010 limits assumed)
Procedure: Determination of Inhibition Constants for GARFT
The GARFT domain of the human enzyme was used. […] The assay mix contained 20 mM Hepes pH 7.5, 20 μM GAR, and variable amounts of 10-formyl-5,8-dideazafolate and inhibitor. For each inhibitor five concentrations were used ranging from 0 to approximately 3Ki. The data were plotted as the […] versus the reciprocal of the 10-formyl-5,8-dideaza-folate concentration. The inhibition constants were measured from a replot of the slopes of these lines obtained for each concentration of inhibitor versus the inhibitor concentration.

T2 sequence (P31939 whole entry): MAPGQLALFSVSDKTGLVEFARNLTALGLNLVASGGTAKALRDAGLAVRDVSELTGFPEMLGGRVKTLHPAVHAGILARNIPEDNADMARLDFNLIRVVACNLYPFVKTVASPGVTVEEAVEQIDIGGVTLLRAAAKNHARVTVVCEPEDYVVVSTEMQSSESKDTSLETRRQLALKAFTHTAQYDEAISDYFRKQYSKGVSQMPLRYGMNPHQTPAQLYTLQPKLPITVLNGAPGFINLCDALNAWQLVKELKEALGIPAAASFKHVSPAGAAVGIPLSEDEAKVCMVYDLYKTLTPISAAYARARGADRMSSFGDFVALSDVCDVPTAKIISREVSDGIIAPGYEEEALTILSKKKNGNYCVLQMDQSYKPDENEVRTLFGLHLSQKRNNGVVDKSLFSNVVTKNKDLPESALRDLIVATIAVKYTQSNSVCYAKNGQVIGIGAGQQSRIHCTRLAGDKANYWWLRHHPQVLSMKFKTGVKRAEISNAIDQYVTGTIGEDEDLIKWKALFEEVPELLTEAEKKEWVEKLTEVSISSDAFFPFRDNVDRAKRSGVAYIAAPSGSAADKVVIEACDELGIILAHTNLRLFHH

SMILES	IC50 (L1210 murine leukemia)	IC50 (L1210-C192)	IC50 [1]	Ki [2]	Ki [3]	melting point	Ki [4]
Nc1nc(N)c(SCCCc2ccc(C(=O)N[C@@H](CCC(=O)O)C(=O)O)cc2)c(=O)[nH]1 [Example 2, N-(4-(3-[2,6-diamino-4(3H)-oxopyrimidin-5-yl)thio]propyl)benzoyl-(S)-glutamic Acid]	79 nM	5000 nM	65 nM	–	–	–	–
Nc1nc(N)c(SCCc2ccc(C(=O)N[C@@H](CCC(=O)O)C(=O)O)s2)c(=O)[nH]1 [Example 9, N-(5-[2-([2,6-Diamino-4(3H)-oxopyrimidin-5-yl]thio)ethyl]thieno-2-yl)-L-glutamic Acid]	250 nM	22000 nM	620 nM	2000 nM	35000 nM	228 to 230 °C (dec.)	–
Cc1cc(CCCSc2c(N)nc(N)[nH]c2=O)sc1C(=O)N[C@@H](CCC(=O)O)C(=O)O [Example 6]	120 nM	> 25000 nM	68 nM	–	–	–	–
Nc1nc(N)c(SCCCc2ccc(C(=O)N[C@@H](CCC(=O)O)C(=O)O)s2)c(=O)[nH]1 [Example 3, N-[2-(5-[3-([2,6-diamino-4(3H)-oxopyrimidin-5-yl]thio)propyl]-thienoyl)]-(S)-glutamic Acid]	40 nM	10500 nM	49 nM	–	–	–	35 nM
Nc1nc(N)c(SCCSc2ccc(C(=O)N[C@@H](CCC(=O)O)C(=O)O)cc2)c(=O)[nH]1 [Example 4, N-[(4-[2-([2,6-diamino-4(3H)-oxopyrimidin-5-yl]thio)ethyl]thio)benzoyl]-S-glutamic Acid]	110 nM	10000 nM	130 nM	–	–	–	110 nM
Cc1cc(C(=O)N[C@@H](CCC(=O)O)C(=O)O)sc1CCCSc1c(N)nc(N)[nH]c1=O [Example 7]	89 nM	28000 nM	99 nM	–	–	–	–
Nc1nc(N)c(SCC2CCc3cc(C(=O)N[C@@H](CCC(=O)O)C(=O)O)sc3C2)c(=O)[nH]1 (stereo partly drawn) [Example 8, N-(6-[([2,6-diamino-4(3H)oxopyrimidin-5-yl]-thio)methyl]-4,5,6,7-tetrahydrobenzothieno-2-yl)-S-glutamic Acid]	10 nM	9000 nM	8 nM	–	–	–	–
Nc1nc(N)c(SCCNc2ccc(C(=O)N[C@@H](CCC(=O)O)C(=O)O)cc2)c(=O)[nH]1 [Example 5, N-[4-(N-[2-([2,6-diamino-4(3H)-oxopyrimidin-5-yl]thio)ethyl]amino)benzoyl]-S-glutamic Acid]	90 nM	4200 nM	80 nM	–	–	–	88 nM
Nc1nc(N)c(SCCc2ccc(C(=O)N[C@@H](CCC(=O)O)C(=O)O)cc2)c(=O)[nH]1 [Example 10]	1500 nM	12000 nM	1200 nM	–	60000 nM	177 to 181 °C	30000 nM
